Measurements taken from article PMC12664493, “Asparagine endopeptidase (AEP) inhibitor formulation via zein-based nanoparticle improves the therapeutic efficacy toward Alzheimer's disease” (Neurotherapeutics, 2025).
Where two headings read alike, the source gives them in different places.

Experiments:
P-glycoprotein (MDR1) = target: T1, P-glycoprotein (MDR1) (Homo sapiens, UniProt P08183); test: MDR1-MDCKII permeability assay (P-glycoprotein efflux); type: in vitro ADME; conditions: dog, MDCK-MDR1; for Papp A→B: first value in brackets; for Papp B→A: second value in brackets
T1 construct: expressed in transfected cells; host or cells: MDCKII
T1 sequence (P08183 whole entry): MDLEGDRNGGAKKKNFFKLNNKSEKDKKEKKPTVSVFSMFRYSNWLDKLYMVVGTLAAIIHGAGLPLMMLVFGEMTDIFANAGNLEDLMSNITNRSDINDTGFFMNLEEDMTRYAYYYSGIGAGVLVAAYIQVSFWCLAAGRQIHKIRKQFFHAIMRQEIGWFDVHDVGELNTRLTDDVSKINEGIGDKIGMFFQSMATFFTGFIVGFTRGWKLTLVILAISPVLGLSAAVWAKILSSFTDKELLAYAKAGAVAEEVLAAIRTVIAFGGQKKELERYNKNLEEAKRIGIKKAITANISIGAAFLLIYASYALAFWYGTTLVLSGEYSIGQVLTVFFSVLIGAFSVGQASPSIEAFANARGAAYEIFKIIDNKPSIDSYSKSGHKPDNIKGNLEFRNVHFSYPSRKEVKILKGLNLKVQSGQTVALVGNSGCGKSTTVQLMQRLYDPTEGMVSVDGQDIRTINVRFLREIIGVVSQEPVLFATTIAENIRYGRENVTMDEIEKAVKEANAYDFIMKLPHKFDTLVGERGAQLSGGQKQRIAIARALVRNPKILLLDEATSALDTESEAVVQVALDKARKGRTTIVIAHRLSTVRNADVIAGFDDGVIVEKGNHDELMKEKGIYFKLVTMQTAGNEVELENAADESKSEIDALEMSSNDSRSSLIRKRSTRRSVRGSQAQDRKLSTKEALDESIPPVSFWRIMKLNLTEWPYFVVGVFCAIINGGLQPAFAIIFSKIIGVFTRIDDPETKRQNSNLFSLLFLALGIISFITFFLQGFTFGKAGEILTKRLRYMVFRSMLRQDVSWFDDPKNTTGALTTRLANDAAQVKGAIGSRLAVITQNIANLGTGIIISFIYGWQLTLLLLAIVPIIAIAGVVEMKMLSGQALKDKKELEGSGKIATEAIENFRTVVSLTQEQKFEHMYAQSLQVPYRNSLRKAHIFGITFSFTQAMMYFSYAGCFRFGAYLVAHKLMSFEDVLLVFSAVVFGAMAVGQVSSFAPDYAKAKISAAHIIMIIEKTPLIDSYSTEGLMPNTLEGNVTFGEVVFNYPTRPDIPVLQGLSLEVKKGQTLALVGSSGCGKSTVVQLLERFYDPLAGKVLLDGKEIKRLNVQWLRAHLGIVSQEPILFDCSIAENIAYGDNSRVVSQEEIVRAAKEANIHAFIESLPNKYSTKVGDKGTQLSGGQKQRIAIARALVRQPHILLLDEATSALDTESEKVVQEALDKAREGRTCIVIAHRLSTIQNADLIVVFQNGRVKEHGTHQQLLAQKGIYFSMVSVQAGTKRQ

[1] = Stability in human plasma; type: in vitro ADME; conditions: read-out: Stability-Plasma T1/2
[2] = Plasma protein binding, mouse; type: in vitro ADME
[3] = PAMPA-BBB permeability assay; type: in vitro ADME; conditions: read-out: Permeability-PAMPA-BBB Pe
AEP [4] = target: T2, AEP (Rattus norvegicus, UniProt Q9R0J8); test: AEP inhibition in cultured primary neurons; type: cell-based
T2 construct: endogenous in cells; host or cells: primary rat cortical neurons
T2 sequence (Q9R0J8 18-435): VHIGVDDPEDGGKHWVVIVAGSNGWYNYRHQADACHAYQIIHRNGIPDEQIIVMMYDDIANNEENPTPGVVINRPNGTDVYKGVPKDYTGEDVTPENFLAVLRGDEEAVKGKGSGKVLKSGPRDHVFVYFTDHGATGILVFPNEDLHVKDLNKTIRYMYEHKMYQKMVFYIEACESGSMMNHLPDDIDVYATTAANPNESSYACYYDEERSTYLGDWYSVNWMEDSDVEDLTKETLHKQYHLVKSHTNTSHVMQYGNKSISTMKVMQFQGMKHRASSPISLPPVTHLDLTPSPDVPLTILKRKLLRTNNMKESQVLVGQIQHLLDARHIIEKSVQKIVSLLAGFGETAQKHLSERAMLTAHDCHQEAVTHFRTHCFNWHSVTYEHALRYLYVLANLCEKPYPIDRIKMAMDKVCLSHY

[5] = Stability in mouse plasma; type: in vitro ADME; conditions: read-out: Stability-Plasma T1/2
[6] = Stability in mouse liver microsomes; type: in vitro ADME; conditions: for half-life: read-out: Stability-Microsomes T1/2
[7] = Stability in human liver microsomes; type: in vitro ADME; conditions: for half-life: read-out: Stability-Microsomes T1/2
recombinant AEP enzyme = target: T3, recombinant AEP enzyme (Homo sapiens, UniProt Q99538); test: In vitro AEP enzymatic inhibition assay; type: biochemical; conditions: read-out: IC50 toward recombinant AEP enzyme (in vitro)
T3 sequence (Q99538 18-433): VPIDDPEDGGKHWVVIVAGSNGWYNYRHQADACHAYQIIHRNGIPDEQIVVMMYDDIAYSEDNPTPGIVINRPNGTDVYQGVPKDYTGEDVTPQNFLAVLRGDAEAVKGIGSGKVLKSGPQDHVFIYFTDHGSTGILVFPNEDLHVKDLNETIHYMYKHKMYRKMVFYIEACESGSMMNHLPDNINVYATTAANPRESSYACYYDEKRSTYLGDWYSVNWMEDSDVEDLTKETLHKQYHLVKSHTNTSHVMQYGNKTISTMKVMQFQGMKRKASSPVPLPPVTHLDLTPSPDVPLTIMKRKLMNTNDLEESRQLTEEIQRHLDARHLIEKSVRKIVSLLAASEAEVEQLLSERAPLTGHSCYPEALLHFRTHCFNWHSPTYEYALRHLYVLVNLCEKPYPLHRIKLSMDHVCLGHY
Procedure: AEP activity was assessed as previously described [21]. Tissue homogenates (10 ​μg protein) were incubated with 20 ​μM AEP-specific fluorogenic substrate in 200 ​μL of optimized assay buffer (20 ​mM citric acid, 60 ​mM Na2HPO4, 1 ​mM EDTA, 0.1 ​% CHAPS, 1 ​mM DTT; pH 6.0) to quantify enzymatic activity. Reactions were performed at 37 ​°C in a temperature-controlled microplate reader (BioTek Synergy HTX Multimode Reader, Agilent, California, USA). AEP-mediated cleavage of the substrate, liberating fluorescent 7-amino-4-methylcoumarin (AMC), was monitored kinetically by measuring emission at 460 ​nm (excitation: 380 ​nm) every 5 ​min over 60-min. Fluorescence values were normalized to background signal from substrate-free controls, and enzyme activity was calculated as the rate of AMC generation (RFU/min/μg protein) during the linear phase of the reaction.

Caco-2 permeability = type: in vitro ADME; conditions: human; for Papp A→B: first value of the cell
hERG K+ channel = hERG K+ channel (Homo sapiens, UniProt Q12809); test: hERG inhibition assay
hERG K+ channel, sequence (Q12809 whole entry): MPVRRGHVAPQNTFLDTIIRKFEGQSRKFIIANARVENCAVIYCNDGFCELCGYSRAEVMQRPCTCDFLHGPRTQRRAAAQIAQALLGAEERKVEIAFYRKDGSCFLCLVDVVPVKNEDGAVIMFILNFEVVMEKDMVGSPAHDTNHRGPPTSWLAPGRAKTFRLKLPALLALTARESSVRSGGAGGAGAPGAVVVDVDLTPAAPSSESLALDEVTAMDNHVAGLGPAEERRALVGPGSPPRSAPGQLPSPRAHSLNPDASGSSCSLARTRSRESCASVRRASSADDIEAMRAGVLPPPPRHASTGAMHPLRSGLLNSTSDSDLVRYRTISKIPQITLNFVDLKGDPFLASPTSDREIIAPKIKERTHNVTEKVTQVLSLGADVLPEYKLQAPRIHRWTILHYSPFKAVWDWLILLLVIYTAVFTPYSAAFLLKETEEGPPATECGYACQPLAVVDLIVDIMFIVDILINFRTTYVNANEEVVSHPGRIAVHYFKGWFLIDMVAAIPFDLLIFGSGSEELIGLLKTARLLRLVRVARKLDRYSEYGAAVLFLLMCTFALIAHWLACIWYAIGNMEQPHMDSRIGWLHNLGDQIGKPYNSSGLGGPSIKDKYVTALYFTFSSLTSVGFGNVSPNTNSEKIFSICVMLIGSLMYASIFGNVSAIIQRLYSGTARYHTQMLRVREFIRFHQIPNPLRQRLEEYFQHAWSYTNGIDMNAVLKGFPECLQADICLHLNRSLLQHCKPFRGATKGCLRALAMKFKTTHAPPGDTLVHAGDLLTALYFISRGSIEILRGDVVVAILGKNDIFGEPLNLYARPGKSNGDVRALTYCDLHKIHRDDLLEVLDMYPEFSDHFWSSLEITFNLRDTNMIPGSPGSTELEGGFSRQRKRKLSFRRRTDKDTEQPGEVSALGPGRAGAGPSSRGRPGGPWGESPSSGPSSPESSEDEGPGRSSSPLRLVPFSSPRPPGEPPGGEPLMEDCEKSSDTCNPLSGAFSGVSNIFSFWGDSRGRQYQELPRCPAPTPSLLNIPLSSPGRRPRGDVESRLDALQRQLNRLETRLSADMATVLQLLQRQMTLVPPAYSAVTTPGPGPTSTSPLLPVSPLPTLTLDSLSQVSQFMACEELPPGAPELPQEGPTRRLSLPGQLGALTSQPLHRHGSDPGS

[8] = Plasma protein binding, human; type: in vitro ADME
Solubility (pH 7.4, PBS) = type: physicochemical
[9] = Stability in human hepatocytes; type: in vitro ADME; conditions: for half-life: read-out: Stability-Hepatocytes T1/2
[10] = Stability in mouse hepatocytes; type: in vitro ADME
3xTg mice = test: Y-maze test in 3xTg mice; type: in vivo, mouse; conditions: 7.5 mg/kg P.O. daily, one month
Text: Blood and brain tissues were collected at 0, 0.08, 0.25, 0.5, 1, 2, 4, and 8 h post-administration. For acute pharmacodynamic (PD) assessments, male and female 3xTg mice received oral doses of NP-11a-isopropyl at 7.5 mg/kg or 15 mg/kg, and blood and brain samples were collected 2 h after treatment.
The Y-maze test was employed to evaluate spatial working memory and spontaneous alternation behavior, a measure of natural exploratory pattern integrity. The apparatus comprised three symmetrical opaque arms (A, B, C; 30 cm length × 8 cm width × 15 cm height) intersecting at 120° angles to form a Y-shaped configuration. Mice were habituated to the maze during a 5-min acclimatization period to minimize novelty-induced anxiety. Following habituation, spontaneous exploration was recorded for 8 min using an overhead camera, with all trials conducted under consistent low-light conditions to reduce environmental stress. EthoVision XT 12 software (Noldus, Wageningen, The Netherlands) quantified total arm entries, entry sequences, and alternation patterns (consecutive entries into three distinct arms without repetition). The maze was thoroughly cleaned with 70 % ethanol between trials to eliminate olfactory cues.

[11] = parameters: method as in PMID 38030711; conditions: cited from earlier work
AEP [12] = target: T4, AEP (Mus musculus, UniProt O89017); test: Acute PD in 3xTg mice: brain AEP enzymatic activity and immunoblotting; type: in vivo; conditions: 2 h
T4 construct: from tissue; host or cells: brain / hippocampus of 3xTg mice
T4 sequence (O89017 18-435): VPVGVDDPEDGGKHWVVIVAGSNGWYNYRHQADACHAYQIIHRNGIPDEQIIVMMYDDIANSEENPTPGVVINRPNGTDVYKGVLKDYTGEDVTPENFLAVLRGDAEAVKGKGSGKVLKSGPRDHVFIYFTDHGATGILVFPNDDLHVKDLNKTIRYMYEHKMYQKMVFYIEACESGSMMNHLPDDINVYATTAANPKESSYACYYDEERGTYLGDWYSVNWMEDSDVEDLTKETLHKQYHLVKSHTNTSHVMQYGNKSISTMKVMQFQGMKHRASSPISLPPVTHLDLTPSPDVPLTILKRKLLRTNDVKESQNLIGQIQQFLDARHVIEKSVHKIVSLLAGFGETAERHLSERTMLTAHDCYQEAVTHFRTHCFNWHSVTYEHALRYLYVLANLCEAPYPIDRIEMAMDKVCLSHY

[13] = Stability in rat hepatocytes; type: in vitro ADME
AEP [14] = target: T4, AEP; test: Chronic one-month oral treatment of 3xTg mice: AEP activation and substrate cleavage; type: in vivo; conditions: 7.5 mg/kg P.O. daily
[15] = Plasma and brain concentrations after acute oral treatment of 3xTg mice; type: in vivo; conditions: both sexes, mouse, plasma, 7.5 mg/kg, P.O. 7.5 mg/kg, read-out: Concentration in plasma, Serum Mean
Text: Blood and brain tissues were collected at 0, 0.08, 0.25, 0.5, 1, 2, 4, and 8 h post-administration.

BCRP = target: T5, BCRP (Homo sapiens, UniProt Q9UNQ0); test: Caco-2-BCRP assay with and without Ko143; type: in vitro ADME; conditions: human, Caco-2, Ko143 0 μM
T5 construct: endogenous in cells; host or cells: Caco-2
T5 sequence (Q9UNQ0 1-655): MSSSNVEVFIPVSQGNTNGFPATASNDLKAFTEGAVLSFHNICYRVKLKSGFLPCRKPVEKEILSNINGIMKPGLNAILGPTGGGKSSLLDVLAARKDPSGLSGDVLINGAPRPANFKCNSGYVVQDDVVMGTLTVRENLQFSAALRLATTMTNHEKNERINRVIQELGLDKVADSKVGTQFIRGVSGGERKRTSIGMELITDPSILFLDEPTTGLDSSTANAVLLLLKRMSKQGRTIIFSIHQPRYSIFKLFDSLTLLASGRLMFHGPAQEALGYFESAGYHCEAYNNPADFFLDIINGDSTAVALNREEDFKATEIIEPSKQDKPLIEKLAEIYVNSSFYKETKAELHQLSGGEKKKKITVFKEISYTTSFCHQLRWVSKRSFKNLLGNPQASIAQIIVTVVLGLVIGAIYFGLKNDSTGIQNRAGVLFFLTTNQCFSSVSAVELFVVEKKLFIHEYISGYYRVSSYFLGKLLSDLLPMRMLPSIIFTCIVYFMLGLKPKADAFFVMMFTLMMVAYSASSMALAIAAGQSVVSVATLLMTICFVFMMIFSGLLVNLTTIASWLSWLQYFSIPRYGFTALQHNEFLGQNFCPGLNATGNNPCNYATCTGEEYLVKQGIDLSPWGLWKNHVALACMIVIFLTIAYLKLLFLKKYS

[16] = aqueous buffer, pH 7.4, read-out: Solubility (pH, media)
[17] = read-out: Stability-Hepatocytes T1/2

Row | Papp A→B (P-glycoprotein (MDR1)) [×10⁻⁶ cm/s] | Papp B→A (P-glycoprotein (MDR1)) [×10⁻⁶ cm/s] | half-life [1] [h] | Plasma Protein F u, plasma(%) [2] [%] | Papp [3] [×10⁻⁶ cm/s] | IC50 (AEP [4]) [nM] | half-life [5] [h] | microsomal CLint [6] [µL/min/mg] | half-life [6] [h] | microsomal CLint [7] [µL/min/mg] | half-life [7] [h] | Papp A→B (Caco-2 permeability) [×10⁻⁶ cm/s] | Plasma Protein F u, plasma(%) [8] [%] | solubility (Solubility (pH 7.4, PBS); [16]) [mg/mL] | hepatocyte CLint [9] [µL/min/1e6 cells] | half-life [9] [h] | Papp A→B (BCRP) [×10⁻⁶ cm/s] | Papp B→A (BCRP) [×10⁻⁶ cm/s] | recovery (BCRP; read-out: Recovery (%) A→B) [%] | recovery (BCRP; read-out: Recovery (%) B→A) [%] | SMILES | further results
1 | 1.44 | 60.5 | > 8 | 20 | 10.4 | 55 | > 8 | 302 | 0.0765 | 45.5 | 0.508 | 11.8 | 6.4 | 5.03 | 31.3 | > 0.738 | – | – | – | – | OCc1cc(Nc2nnc(N3CCCC3)s2)c2nonc2c1N1CCOCC1 [11a-pentyl] | efflux ratio (P-glycoprotein (MDR1); third value of the cell, not given, read-out: Permeability-MDR1-MDCKII, value after the brackets (efflux ratio)): 42.1; IC50 (recombinant AEP enzyme): 14.7 nM; efflux ratio (Caco-2 permeability): 1.28; Papp B→A (Caco-2 permeability; value after the slash, head names only a-b, read-out: Permeability-Caco-2 Papp, second value of the cell (taken as b-a)): 14.8 ×10⁻⁶ cm/s; IC50 (hERG K+ channel): > 10000 nM; solubility (Solubility (pH 7.4, PBS); pH 7.4, aqueous buffer, pH7.4, read-out: Solubility (pH, media)): 12.5 mM; hepatocyte CLint [10]: 28.5 µL/min/1e6 cells; half-life [10, 17]: > 0.81 h
2 | 0.78 | 29.2 | > 8 | 26.9 | 1.62 | 45 | > 8 | 19.9 | 1.93 | 12.8 | > 3 | 10.6 | 43.3 | 150 | 4.1 | 5.67 | – | – | – | – | CNc1nnc(Nc2cc(CO)c(N3CCOCC3)c3nonc23)s1 [11a] | Cognitive function in the Y maze (3xTg mice): significantly improved; Brain Cmax ([11]; 11a at 10 mg/kg): 27.012 ng/mL; Brain AUC ([11]; oral administration): 128.980; Plasma AUC ([11]; oral administration): 516.028; AEP enzymatic activity in the brain (AEP [12]; acute P.O. 7.5 and 15 mg/kg, dose-dependent): substantially inhibited; Active AEP band intensity, hippocampus immunoblotting (AEP [12]; acute P.O.): reduced; hERG IC50 (hERG K+ channel): negative; hepatocyte CLint [13]: 3 µL/min/1e6 cells; half-life [13, 17]: > 8 h; AEP activation, APP N585 and Tau N368 fragmentation, hippocampus immunoblotting (AEP [14]): gradually reduced; concentration at 2 h [15]: 161 ng/mL
3 | – | – | – | – | – | – | – | – | – | – | – | – | – | – | – | – | 0.272 | 0.679 | 91.5 | 106 | CC(C)(C)NCC(O)COc1cccc2c1CC(O)C(O)C2 (centres unmarked) [Nadolol, reference compound] | –
4 | – | – | – | – | – | – | – | – | – | – | – | – | – | – | – | – | 29.3 | 30.5 | 93.5 | 102 | CC(C)NCC(O)COc1cccc2ccccc12 (centres unmarked) [Propranolol, reference compound] | –
